PubChem BioAssay (NCI)
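Grown in 96-well plates, cells were treated for 48 hours with each compound at five concentrations. Insufficient inhibition: endpoint recorded as highest concentration tested. TGI denotes the concentration required for complete inhibition of growth.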

How the values were obtained:
Test in all cases: NCI-60 cell line screen, 48 h
PC-3 prostate = test system: PC-3 prostate
OVCAR-3 ovarian = test system: OVCAR-3 ovarian
EKVX NSCLC = test system: EKVX NSCLC
HOP-62 NSCLC = test system: HOP-62 NSCLC
UACC-257 melanoma = test system: UACC-257 melanoma
TK-10 renal = test system: TK-10 renal
NCI-H226 lung = test system: NCI-H226 lung
UO-31 renal = test system: UO-31 renal
MDA-MB-231 breast = test system: MDA-MB-231 breast
K-562 leukemia = test system: K-562 leukemia

Row | Compound | TGI (PC-3 prostate) | TGI (OVCAR-3 ovarian) | TGI (EKVX NSCLC) | TGI (HOP-62 NSCLC) | TGI (UACC-257 melanoma) | TGI (TK-10 renal) | TGI (NCI-H226 lung) | TGI (UO-31 renal) | TGI (MDA-MB-231 breast) | TGI (K-562 leukemia)
1 | CN1C(=O)[C@](C)(Cc2ccc(F)cc2)N(C(=O)OC(C)(C)C)[C@@H]1C(C)(C)C | > 100 µM | 84 µM | > 100 µM | > 100 µM | 92.3 µM | > 100 µM | 67.3 µM | > 100 µM | > 100 µM | 65.7 µM
2 | O=C1CSC2=NC3=C(COC/C3=C\c3ccc(F)cc3)C(c3ccc(F)cc3)N12 (stereo not drawn) | > 100 µM | > 100 µM | > 100 µM | > 100 µM | > 100 µM | > 100 µM | > 100 µM | > 100 µM | > 100 µM | > 100 µM
3 | COc1cc(C)c(S(=O)(=O)N(CCCN)OCCCN)c(C)c1C | 77.3 µM | > 100 µM | > 100 µM | > 100 µM | 62.3 µM | > 100 µM | > 100 µM | > 100 µM | 80.8 µM | 31.7 µM
4 | CC(=O)OCC12C(OC(C)=O)C[C@@H](C)C3(CC(c4ccoc4)OC3=O)C1CCC(OC(C)=O)C21CO1 (stereo partly drawn) | > 100 µM | > 100 µM | > 100 µM | > 100 µM | > 100 µM | > 100 µM | > 100 µM | > 100 µM | > 100 µM | > 100 µM
5 | CC(=O)c1c2c(cc3c1CCC3)CCC2 | > 100 µM | > 100 µM | > 100 µM | > 100 µM | > 100 µM | > 100 µM | > 100 µM | > 100 µM | > 100 µM | > 100 µM
6 | COc1ccc2c(-c3csc(-c4c[nH]c5ccccc45)n3)c[nH]c2c1 | 39.9 µM | 51.7 µM | 13.3 µM | 49.2 µM | > 90.6 µM | 23.5 µM | 45.4 µM | 30.6 µM | > 37.6 µM | > 22.1 µM
7 | CN(C)/C=C/C(=O)c1cccc(C(=O)/C=C/N(C)C)n1 | – | > 100 µM | > 100 µM | > 100 µM | > 100 µM | > 100 µM | > 100 µM | > 100 µM | – | > 100 µM
8 | CCOC(=O)CCN1C(=O)c2c(NC(=O)C(=O)O)cccc2S1(=O)=O | > 100 µM | – | > 100 µM | > 100 µM | > 100 µM | > 100 µM | > 100 µM | > 100 µM | > 100 µM | > 100 µM
9 | Fc1sc2c(c1F)C1CCC2C1 (stereo not drawn) | > 100 µM | > 100 µM | > 100 µM | > 100 µM | > 100 µM | > 100 µM | > 100 µM | > 100 µM | > 100 µM | –
10 | CC1CN=C(N(C(=O)Nc2ccccc2)C2CCCCC2)S1 (stereo not drawn) | 31.3 µM | 31.8 µM | 35.4 µM | > 100 µM | 30.2 µM | 37 µM | – | 32.3 µM | 29.9 µM | 73.2 µM
11 | C=C1CC2C[C@H](OS(=O)(=O)c3ccc(C)cc3)C(C1)N2C (stereo partly drawn) | > 100 µM | > 100 µM | > 100 µM | > 100 µM | > 100 µM | > 100 µM | > 100 µM | > 100 µM | > 100 µM | > 100 µM
12 | O=S1(=O)OCCOS(=O)(=O)C1S(=O)(=O)c1cccc2ccccc12 | > 100 µM | > 100 µM | > 100 µM | > 100 µM | > 100 µM | – | – | > 100 µM | > 100 µM | > 100 µM
13 | COC1OC(=O)C(OC)C(OC)C1OC (stereo not drawn) | > 100 µM | > 100 µM | > 100 µM | > 100 µM | > 100 µM | > 100 µM | > 100 µM | > 100 µM | > 100 µM | > 100 µM
14 | Nc1nn2cc(-c3ccccc3)[n+](CC(=O)c3ccccc3)c2s1 | > 100 µM | 71.3 µM | > 100 µM | 87.5 µM | 70.5 µM | > 100 µM | > 100 µM | > 100 µM | > 100 µM | 66.7 µM
15 | Oc1[nH]c2ccccc2c1N=NC(=S)NCc1ccccn1 | 17.5 µM | 15.3 µM | 12.5 µM | 6.87 µM | 13.7 µM | 18.3 µM | 10.5 µM | 6.56 µM | 20.8 µM | –
16 | CC1CC2OC(=N)C1(C#N)C2(C#N)C#N (stereo not drawn) | 71.7 µM | – | 51.1 µM | 35.2 µM | 41 µM | 71.6 µM | > 100 µM | 93 µM | 38.4 µM | 56.2 µM
17 | COc1ccc(C(OCC2OC(n3ccc(Oc4c(F)c(F)c(F)c(F)c4F)nc3=O)CC2OP(OCCC#N)N(C(C)C)C(C)C)(c2ccccc2)c2ccc(OC)cc2)cc1 (stereo not drawn) | > 100 µM | > 100 µM | – | > 100 µM | > 100 µM | > 100 µM | > 100 µM | > 100 µM | > 100 µM | > 100 µM
18 | CC1[C@@H]2C[C@@H]3O[C@@]34[C@H]3CCC5Cc6nc7c(nc6C[C@@]5(C)C3(O)CC(=O)[C@@]24CO[C@]12OC(C)(C)CC2O)CC1CC[C@@H]2C3=C[C@H]4O[C@@]5(O[C@@](C)(CO)C[C@@H]5O)C(C)[C@@]4(O)[C@]3(C)[C@@H](O)CC2[C@]1(C)C7 (stereo partly drawn) | – | > 3.52 µM | 1.03 µM | 0.0729 µM | > 3.52 µM | – | > 3.52 µM | 0.755 µM | – | 0.666 µM
19 | CCOC(=O)C1=C(C)N(c2ccc(Cl)cc2)C2(O)C=CC(=O)C3C(=O)N(c4ccccc4)C(=O)C132 (stereo not drawn) | 3.49 µM | 2.75 µM | 4.38 µM | 4.19 µM | 6.76 µM | 3.49 µM | – | 3.31 µM | 4.59 µM | 9.03 µM
20 | O=C(c1cccs1)N(C(=O)N1CCCCC1)c1ccccc1 | > 100 µM | > 100 µM | > 100 µM | – | > 100 µM | > 100 µM | > 100 µM | > 100 µM | > 100 µM | > 100 µM
21 | CN(C)CC(C)(C)C(=O)/C=C/c1ccccc1 | – | 40.5 µM | 38.3 µM | 96.3 µM | 27.2 µM | 32.1 µM | 29.3 µM | 23 µM | – | 33.7 µM
